Reference: ChEMBL document CHEMBL5325439, “Application of an "inhalation by design" approach to the identification and in-vitro evaluation of novel purine based PI3Kδ inhibitors” (Eur J Med Chem, 2023)
≈ marks a conversion by molar mass, not a printed value. Calls of active or inactive are those of the source. No cut-off for these calls is given here.

How the values were obtained:
[1] = Kinetic solubility of compound in PBS at pH 7.4 by HPLC analysis; assay type: physicochemical; details: for solubility kinetic: PBS, read-out: Kinetic_solubility; for Kinetic_solubility: buffer
[2] = target: Phosphatidylinositol 4,5-bisphosphate 3-kinase catalytic subunit alpha isoform (Homo sapiens, UniProt P42336); experiment: Inhibition of recombinant human PI3Kalpha using l-a-phosphatidylinositol sodium salt and l-a-phosphatidyl-L-serine as substrate incubated for 60 mins in presence of ATP by ADP-glo kinase assay
[3] = Metabolic stability in human hepatocytes assessed as clearance measured per 10^6 cells at 0.5 uM incubated for 180 mins; assay type: ADME, cell-based, Hepatocyte; details: read-out: CLH
[4] = test system: HepG2; experiment: Cytotoxicity against human HepG2 cells assessed as reduction in cell viability at 3 to 30 uM incubated for 48 hrs by celltiter-glo assay; assay type: functional, cell-based; details: dose 3-30 µM
[5] = Microsomal stability in rat liver microsomes assessed as clearance at 0.5 uM incubated for 30 mins; assay type: ADME, Microsome; details: read-out: CLH
[6] = Inhibition of PI3Kdelta/AKT pathway in M-CSF stimulated human THP-1 cells assessed as decrease in AKT phosphorylation preincubated for 60 mins followed by M-CSF stimulation and measured after 10 mins by HTRF analysis; details: THP-1, read-out: pIC50 (converted)
[7] = target: T1, Phosphatidylinositol 4,5-bisphosphate 3-kinase catalytic subunit delta isoform (Homo sapiens, UniProt O00329); experiment: Inhibition of recombinant human PI3Kdelta using l-a-phosphatidylinositol sodium salt and l-a-phosphatidyl-L-serine as substrate incubated for 60 mins in presence of ATP by ADP-glo kinase assay
T1 sequence (O00329 whole entry): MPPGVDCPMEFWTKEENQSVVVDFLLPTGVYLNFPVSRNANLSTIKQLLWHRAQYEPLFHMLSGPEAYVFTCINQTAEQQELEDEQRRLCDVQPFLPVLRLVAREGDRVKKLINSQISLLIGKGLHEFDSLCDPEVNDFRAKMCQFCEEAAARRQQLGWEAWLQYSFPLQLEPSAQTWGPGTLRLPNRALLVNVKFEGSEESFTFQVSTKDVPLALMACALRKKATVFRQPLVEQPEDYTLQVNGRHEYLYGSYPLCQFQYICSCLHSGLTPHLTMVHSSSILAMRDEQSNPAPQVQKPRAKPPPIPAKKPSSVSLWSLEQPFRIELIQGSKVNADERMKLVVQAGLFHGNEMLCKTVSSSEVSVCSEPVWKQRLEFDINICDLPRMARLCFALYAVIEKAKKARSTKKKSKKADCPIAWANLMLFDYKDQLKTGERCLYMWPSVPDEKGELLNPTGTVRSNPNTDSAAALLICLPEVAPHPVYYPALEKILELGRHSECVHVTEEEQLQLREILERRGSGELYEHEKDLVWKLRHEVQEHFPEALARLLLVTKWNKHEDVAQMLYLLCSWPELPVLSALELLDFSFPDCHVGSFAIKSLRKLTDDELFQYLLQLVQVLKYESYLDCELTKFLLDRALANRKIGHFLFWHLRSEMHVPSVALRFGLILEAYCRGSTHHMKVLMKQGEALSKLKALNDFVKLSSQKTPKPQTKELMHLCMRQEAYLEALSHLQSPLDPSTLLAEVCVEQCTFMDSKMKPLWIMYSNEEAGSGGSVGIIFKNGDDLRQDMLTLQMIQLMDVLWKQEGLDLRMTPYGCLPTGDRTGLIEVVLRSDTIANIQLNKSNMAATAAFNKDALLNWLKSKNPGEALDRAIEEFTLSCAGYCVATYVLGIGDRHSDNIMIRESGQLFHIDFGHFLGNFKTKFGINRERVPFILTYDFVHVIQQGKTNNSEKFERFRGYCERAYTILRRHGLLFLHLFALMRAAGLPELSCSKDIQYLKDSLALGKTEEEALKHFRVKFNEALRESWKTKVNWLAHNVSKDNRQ

[8] = Metabolic stability in rat hepatocytes assessed as clearance measured per 10^6 cells at 0.5 uM incubated for 180 mins; assay type: ADME, cell-based, Hepatocyte; details: read-out: CLH
[9] = target: Phosphatidylinositol 4,5-bisphosphate 3-kinase catalytic subunit gamma isoform (Homo sapiens, UniProt P48736); experiment: Inhibition of recombinant human PI3Kgamma using l-a-phosphatidylinositol sodium salt and l-a-phosphatidyl-L-serine as substrate incubated for 60 mins in presence of ATP by ADP-glo kinase assay
[10] = Metabolic stability in human lung S9 fraction assessed as half life measured upto 120 mins in presence of NADPH by LC-MS/MS analysis; assay type: ADME, subcellular
[11] = Protein binding in human plasma by rapidfire high-throughput MS analysis; assay type: ADME, cell-free; details: read-out: PPB (converted)
[12] = Protein binding in rat lung by rapidfire high-throughput MS analysis; assay type: ADME, tissue-based; details: read-out: PB (converted)
[13] = target: Phosphatidylinositol 4,5-bisphosphate 3-kinase catalytic subunit beta isoform (Homo sapiens, UniProt P42338); experiment: Inhibition of recombinant human PI3Kbeta using l-a-phosphatidylinositol sodium salt and l-a-phosphatidyl-L-serine as substrate incubated for 60 mins in presence of ATP by ADP-glo kinase assay
[14] = Metabolic stability in rat lung S9 fraction assessed as half life measured upto 120 mins in presence of NADPH by LC-MS/MS analysis; assay type: ADME, subcellular
[15] = Microsomal stability in human liver microsomes assessed as clearance at 0.5 uM incubated for 30 mins; assay type: ADME, Microsome; details: read-out: CLH
[16] = Protein binding in rat plasma by rapidfire high-throughput MS analysis; assay type: ADME, cell-free; details: read-out: PPB (converted)
[17] = test system: HepG2; experiment: Cytotoxicity against human HepG2 cells assessed as reduction in cell viability at 10 to 30 uM incubated for 48 hrs by celltiter-glo assay; assay type: functional, cell-based; details: dose 10-30 µM
[18] = Apparent permeability across basolateral side to apical side in human Caco-2 cells by […] assay; assay type: ADME, cell-based
[19] = test system: THP-1; details: Homo sapiens, time 70.0 min

Chain of Phosphatidylinositol 4,5-bisphosphate 3-kinase catalytic subunit beta isoform (P42338 whole entry, canonical isoform): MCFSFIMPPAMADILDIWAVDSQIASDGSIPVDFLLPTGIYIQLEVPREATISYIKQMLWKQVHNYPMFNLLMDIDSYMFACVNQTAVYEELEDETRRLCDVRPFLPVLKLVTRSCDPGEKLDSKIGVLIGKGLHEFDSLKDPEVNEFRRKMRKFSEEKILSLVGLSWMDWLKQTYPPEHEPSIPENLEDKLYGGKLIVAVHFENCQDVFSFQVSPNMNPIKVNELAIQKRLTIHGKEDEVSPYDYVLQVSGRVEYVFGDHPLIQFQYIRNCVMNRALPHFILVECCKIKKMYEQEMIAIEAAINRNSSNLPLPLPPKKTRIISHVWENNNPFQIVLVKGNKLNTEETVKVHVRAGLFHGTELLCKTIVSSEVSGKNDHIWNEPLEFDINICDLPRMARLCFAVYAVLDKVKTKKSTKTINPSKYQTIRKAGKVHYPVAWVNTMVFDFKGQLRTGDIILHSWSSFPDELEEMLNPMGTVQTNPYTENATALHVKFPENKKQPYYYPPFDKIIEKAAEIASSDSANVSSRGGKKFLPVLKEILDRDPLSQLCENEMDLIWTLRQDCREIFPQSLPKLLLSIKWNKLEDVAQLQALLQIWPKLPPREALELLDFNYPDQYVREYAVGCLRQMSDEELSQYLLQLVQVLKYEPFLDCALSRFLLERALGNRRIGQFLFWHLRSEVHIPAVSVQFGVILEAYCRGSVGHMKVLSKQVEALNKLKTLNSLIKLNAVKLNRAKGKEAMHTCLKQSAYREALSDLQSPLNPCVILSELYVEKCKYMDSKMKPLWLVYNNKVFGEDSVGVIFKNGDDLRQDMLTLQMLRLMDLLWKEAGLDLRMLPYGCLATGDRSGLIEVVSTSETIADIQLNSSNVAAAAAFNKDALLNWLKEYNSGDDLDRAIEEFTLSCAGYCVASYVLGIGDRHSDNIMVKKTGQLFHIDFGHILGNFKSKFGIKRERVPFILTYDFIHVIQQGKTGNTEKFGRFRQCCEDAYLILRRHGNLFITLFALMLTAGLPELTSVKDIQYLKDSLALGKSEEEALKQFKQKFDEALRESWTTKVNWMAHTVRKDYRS
Chain of Phosphatidylinositol 4,5-bisphosphate 3-kinase catalytic subunit alpha isoform (P42336 whole entry, canonical isoform): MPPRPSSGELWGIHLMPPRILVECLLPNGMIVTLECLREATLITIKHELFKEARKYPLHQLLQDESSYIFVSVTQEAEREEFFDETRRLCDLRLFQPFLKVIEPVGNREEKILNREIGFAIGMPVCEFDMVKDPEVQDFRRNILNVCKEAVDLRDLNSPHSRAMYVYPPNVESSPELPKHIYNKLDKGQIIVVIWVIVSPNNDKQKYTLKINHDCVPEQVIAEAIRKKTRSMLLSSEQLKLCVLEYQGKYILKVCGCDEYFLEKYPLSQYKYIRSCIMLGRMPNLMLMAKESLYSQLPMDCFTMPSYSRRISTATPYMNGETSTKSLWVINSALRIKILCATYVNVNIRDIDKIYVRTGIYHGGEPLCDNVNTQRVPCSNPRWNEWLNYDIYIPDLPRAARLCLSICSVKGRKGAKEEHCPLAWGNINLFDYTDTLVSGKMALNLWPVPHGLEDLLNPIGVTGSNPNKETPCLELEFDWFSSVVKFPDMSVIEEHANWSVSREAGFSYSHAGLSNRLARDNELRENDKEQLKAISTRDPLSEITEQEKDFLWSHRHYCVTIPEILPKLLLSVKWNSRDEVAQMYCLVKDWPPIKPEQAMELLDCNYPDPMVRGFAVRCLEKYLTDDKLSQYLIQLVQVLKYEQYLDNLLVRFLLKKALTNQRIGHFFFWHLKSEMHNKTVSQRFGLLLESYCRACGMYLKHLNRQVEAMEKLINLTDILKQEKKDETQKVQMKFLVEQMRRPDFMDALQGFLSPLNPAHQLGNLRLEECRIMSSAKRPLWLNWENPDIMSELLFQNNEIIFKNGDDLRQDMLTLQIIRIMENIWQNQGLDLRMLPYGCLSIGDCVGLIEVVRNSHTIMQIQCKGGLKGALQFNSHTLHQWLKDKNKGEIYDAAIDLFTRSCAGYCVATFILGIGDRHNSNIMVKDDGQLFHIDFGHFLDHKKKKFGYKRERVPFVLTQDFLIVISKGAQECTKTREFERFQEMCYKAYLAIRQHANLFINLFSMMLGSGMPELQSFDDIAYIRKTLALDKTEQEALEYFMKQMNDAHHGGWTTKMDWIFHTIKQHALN
Chain of Phosphatidylinositol 4,5-bisphosphate 3-kinase catalytic subunit gamma isoform (P48736 whole entry, canonical isoform): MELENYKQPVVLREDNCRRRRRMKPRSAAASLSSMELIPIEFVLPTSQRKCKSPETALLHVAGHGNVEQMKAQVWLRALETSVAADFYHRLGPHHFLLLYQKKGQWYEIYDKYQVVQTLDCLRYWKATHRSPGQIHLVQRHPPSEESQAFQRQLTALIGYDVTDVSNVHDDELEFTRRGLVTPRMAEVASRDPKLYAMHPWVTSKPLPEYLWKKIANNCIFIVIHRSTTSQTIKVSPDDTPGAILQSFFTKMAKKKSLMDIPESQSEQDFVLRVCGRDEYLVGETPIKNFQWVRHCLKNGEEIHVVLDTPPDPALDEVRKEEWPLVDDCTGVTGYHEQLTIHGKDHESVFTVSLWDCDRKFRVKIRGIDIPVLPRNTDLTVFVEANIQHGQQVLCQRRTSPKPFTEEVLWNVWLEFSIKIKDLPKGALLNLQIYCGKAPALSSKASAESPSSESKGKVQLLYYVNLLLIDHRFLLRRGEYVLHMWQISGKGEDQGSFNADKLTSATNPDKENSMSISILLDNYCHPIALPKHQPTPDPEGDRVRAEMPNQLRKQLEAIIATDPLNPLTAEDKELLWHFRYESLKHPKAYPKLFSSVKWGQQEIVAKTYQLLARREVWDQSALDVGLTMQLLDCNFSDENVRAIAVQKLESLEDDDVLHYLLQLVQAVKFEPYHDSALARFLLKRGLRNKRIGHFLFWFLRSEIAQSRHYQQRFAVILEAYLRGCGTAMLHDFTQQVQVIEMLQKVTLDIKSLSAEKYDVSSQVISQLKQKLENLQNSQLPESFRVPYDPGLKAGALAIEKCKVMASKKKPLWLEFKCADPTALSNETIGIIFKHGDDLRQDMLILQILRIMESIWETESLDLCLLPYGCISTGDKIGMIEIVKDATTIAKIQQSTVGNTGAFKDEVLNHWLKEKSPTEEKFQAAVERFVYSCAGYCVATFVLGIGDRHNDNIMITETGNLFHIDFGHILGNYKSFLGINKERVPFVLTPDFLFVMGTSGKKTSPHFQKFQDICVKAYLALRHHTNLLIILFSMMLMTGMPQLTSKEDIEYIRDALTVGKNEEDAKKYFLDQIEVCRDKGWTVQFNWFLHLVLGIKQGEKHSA

solubility kinetic [1] [µM] | Ki [2] [nM] | Ki [7] [nM] | Ki [9] [nM] | Ki [13] [nM] | SMILES | further results
62 (≈ 27.5 µg/mL) | – | – | – | – | NC(=O)c1nc(-c2cccc(O)c2)nc2c1[nH]c(=O)n2CCc1ccc(Cl)c(Cl)c1 | –
– | 79.4 | – | – | – | NC(=O)c1nc(-c2cccc(O)c2)nc2c1[nH]c(=O)n2-c1ccc(F)cc1 | –
414 (≈ 190 µg/mL) | 200 | 3.16 | 398 | 6.31 | CC(Cc1ccc(Cl)c(Cl)c1)n1c(=O)[nH]c2c(C(N)=O)nc(-c3cccc(O)c3)nc21 (stereo not given) | hepatocyte CLint at 0.5 µM [3]: 79 µL/min/1e6 cells; Activity [4]: inactive; microsomal CLint at 0.5 µM [5]: 50 µL/min/mg; IC50 [6]: 100 nM; hepatocyte CLint at 0.5 µM [8]: 120 µL/min/1e6 cells; half-life [10]: > 8.33 h; fraction unbound [11]: < 0.01; fraction unbound [12]: < 0.01; half-life [14]: > 8.33 h; microsomal CLint at 0.5 µM [15]: 19 µL/min/mg; fraction unbound [16]: < 0.01
– | – | – | – | – | NC(=O)c1nc(-c2cccc(O)c2)nc2c1[nH]c(=O)n2CCc1ccc2c(c1)OCO2 | Kinetic_solubility [1]: Not Active
405 (≈ 154 µg/mL) | – | – | – | – | NC(=O)c1nc(-c2cccc(O)c2)nc2c1[nH]c(=O)n2CCc1cccs1 | –
– | 39.8 | 50.1 | 126 | 158 | NC(=O)c1nc(-c2cccc(O)c2)nc2c1[nH]c(=O)n2-c1ccc(N2CCOCC2)cc1 | –
498 (≈ 228 µg/mL) | – | – | – | – | Cc1ccc(O)cc1-c1nc(C(N)=O)c2[nH]c(=O)n(CCc3ccc(Cl)c(Cl)c3)c2n1 | –
– | – | – | – | – | CC(C)c1ccc(CCn2c(=O)[nH]c3c(C(N)=O)nc(-c4cccc(O)c4)nc32)cc1 | Kinetic_solubility [1]: Not Active
– | ≥ 20000 | – | – | – | NC(=O)c1nc(-c2cccc3[nH]ccc23)nc2c1[nH]c(=O)n2CCc1ccc(Cl)c(Cl)c1 | –
– | – | – | – | – | CC[C@H](Nc1ncnc2[nH]cnc12)c1nc2cccc(F)c2c(=O)n1-c1ccccc1 [IDELALISIB] | Activity [17]: Active; IC50 [6]: 31.6 nM; fraction unbound [11]: 0.031; Papp B→A [18]: 23.4 ×10⁻⁶ cm/s; fraction unbound [12]: 0.139; fraction unbound [16]: 0.148
– | – | 126 | 1580 | – | NC(=O)c1nc(-c2cccc3[nH]ncc23)nc2c1[nH]c(=O)n2CCc1ccc(Cl)c(Cl)c1 | –
178 (≈ 76.6 µg/mL) | 126 | 5.01 | 316 | 20 | NC(=O)c1nc(-c2cccc(O)c2)nc2c1[nH]c(=O)n2C1CCN(Cc2ccccc2)C1 (stereo not given) | hepatocyte CLint at 0.5 µM [3]: 55 µL/min/1e6 cells; Activity [4]: inactive; microsomal CLint at 0.5 µM [5]: 133 µL/min/mg; IC50 [6]: 316 nM; hepatocyte CLint at 0.5 µM [8]: 163 µL/min/1e6 cells; half-life [10]: 2.36 h; fraction unbound [11]: 0.032; Papp B→A [18]: 0.2 ×10⁻⁶ cm/s; fraction unbound [12]: 0.021; half-life [14]: > 8.33 h; microsomal CLint at 0.5 µM [15]: 70 µL/min/mg; fraction unbound [16]: 0.033
– | 158 | 63.1 | 158 | 158 | NC(=O)c1nc(-c2cccc(O)c2)nc2c1[nH]c(=O)n2C1CC1c1ccccc1 (stereo not given) | pIC50 [19]: inactive; Kinetic_solubility [1]: Not Active
– | 100 | > 20000 | 1260 | 631 | NC(=O)c1nc(-c2cccc(O)c2)nc2c1[nH]c(=O)n2CC1CCS(=O)(=O)C1 (stereo not given) | –
– | 39.8 | 39.8 | 251 | 316 | NC(=O)c1nc(-c2cccc(O)c2)nc2c1[nH]c(=O)n2CC1CCOC1 (stereo not given) | –
– | ≥ 20000 | ≥ 20000 | ≥ 20000 | ≥ 20000 | CN(C)Cc1cccc(-c2nc(C(N)=O)c3[nH]c(=O)n(CCc4ccc(Cl)c(Cl)c4)c3n2)c1 | –
